Experimental findings from patent publication US8461077B2 (priority 2007, dated 2013) are described below.

Structures are written as SMILES. Where two headings read alike, the source gives them in different places.

The test system of one assay is Septoria tritici. The assay can be described thus: Microtiter test against the Septoria leaf spot pathogen (Septtr). It counts as cell-based. Conditions: single active substance, microtiter plate, day 7, 405 nm.
Assay [1] deals with Phytophthora infestans. It counts as cell-based. To be noted: single active substance, microtiter plate, day 7, 405 nm.
For another assay, the system named is Plasmopara viticola. The experiment in a line: Greenhouse: activity against downy mildew of grapevine. It counts as in vivo. To be noted: single active substance, grapevine leaves sprayed 1 day before inoculation. The protocol: (§1) The active substances, separately or individually, were prepared as a stock solution, using 25 mg of active substance, which was made up to 10 ml with a mixture of acetone and/or DMSO and the emulsifier Uniperol® EL (wetter based on ethoxylated alkylphenols, with emulsifying and disputing activity) in the volumetric solvent/emulsifier ratio of 99 to 1. Then, the mixtures were made up to 100 ml with water. This stock solution was diluted with the above-described solvent/emulsifier/water mixture to give the active substance concentration stated below. As an alternative, the active substances were used as a commercially available ready mix and made up to the active substance concentration stated with water.
(§2) The visually determined values for the percentage of affected leaf area were converted into efficacies as % of the untreated control:
(§3) The efficacy (E) is calculated as follows, using Abbot's formula: E=(1−α/β)·100 • α corresponds to the fungal disease level of the treated plants in % and • β corresponds to the fungal disease level of the untreated (control) plants in %
(§4) At an efficacy of 0 the disease level of the treated plants corresponds to that of the untreated control plants; at an efficacy of 100, the treated plants are not diseased.
(§5) The expected efficacies for active substance combinations were determined using the Colby formula (Colby, S. R. (Calculating synergistic and antagonistic responses of herbicide Combinations”, Weeds, 15, p. 20-22, 1967) and compared with the observed efficacies.
(§6) Colby Formula: E=x+y−x·y/100 • E expected efficacy, expressed in % of the untreated control, when employing the mixture of the active substances A and B at the concentrations a and b • x efficacy, expressed in % of the untreated control, when employing active substance A at concentration a • y efficacy, expressed in % of the untreated control, when employing active substance B at concentration b
Leaves of pot-grown grapevines were sprayed to runoff point with aqueous suspension at the active substance concentration stated below. On the next day, the abaxial sides of the leaves were inoculated with an aqueous sporangia suspension of Plasmopara viticola. Then, the grapevines were placed first for 24 hours into a water-vapor-saturated chamber at 24° C. and then for 5 days in the greenhouse at temperatures of between 20 and 30° C. After this time, the plants were returned into a humid chamber for 16 hours in order to accelerate the eruption of the sporangiophores. Then, the extent of the disease development on the abaxial sides of the leaves was determined visually.

In a further assay the test system is Botrytis cinerea. The assay can be described thus: Greenhouse: 1-day protective activity against gray mold on capsicum leaves. Conditions: single active substance, protective 1 day, rated after 5 days. The class given is in vivo. How it is done:
as §1, §2, §3, §4, §5, §6
Capsicum seedlings were allowed to develop 2-3 leaves properly and were then sprayed to runoff point with an aqueous suspension of the active substance concentration stated below. On the next day, the treated plants were inoculated with a spore suspension of Botrytis cinerea in a 2% strength Biomalz solution. Thereafter, the test plants were placed into a controlled-environment cabinet at 22 to 24° C. in the dark and with high atmospheric humidity. After 5 days, it was possible to visually determine the extent of the fungal disease level on the leaves in %.

Assay [2] relates to Phytophthora infestans. The class given is in vivo. To be noted: single active substance, tomato, protective spray, rated after 6 days.
Assay [3] deals with Puccinia recondita. The assay can be described thus: Greenhouse: curative activity against leaf rust of wheat. Conditions: single active substance. It counts as in vivo. How it is done:
as §1, §2
(§7) The efficacy (E) is calculated as follows, using Abbot's formula: E=(1−α/β)·100 • α corresponds to the fungal disease level of the treated plants in % and • β corresponds to the fungal disease level of the untreated (control) plants in % […]
(§8) The expected efficacies for active substance combinations were determined using the Colby formula (Colby, S. R. (Calculating synergistic and antagonistic responses of herbicide Combinations”, Weeds, 15, p. 20-22, 1967) and compared with the observed efficacies. […]

Assay [4] relates to Puccinia recondita. The experiment in a line: Greenhouse: protective activity against leaf rust of wheat. It counts as in vivo. To be noted: single active substance. The protocol:
as §1, §2, §7, §8

For a further assay, the system named is Pyrenophora teres. The assay can be described thus: Greenhouse: 1-day protective activity against barley net blotch disease. To be noted: single active substance, protective 1 day, rated after 6 days. It counts as in vivo, Pyrenophora [syn. Drechslera] teres. The protocol:
as §1, §2, §7, §8

The subject of another assay is Phakopsora pachyrhizi. The assay can be described thus: Greenhouse: curative activity against soybean rust. The class given is in vivo. Conditions: single active substance. How it is done:
as §1, §2, §7, §8

Setting [5] is: 0.063 ppm, efficacy as % of untreated control (Abbot).

`CCC/C(=N\OCC)C1=C(O)CC(C2CCCSC2)CC1=O` (stereo not drawn) [Cycloxydim (I.Ba), cycloxydim, reference compound]: the “Observed effect (%)” value in the assay on Septoria tritici (63 ppm) is reported as 39%; in the assay on Phytophthora infestans [1] (1 ppm), 9%; in the assay on Phytophthora infestans [1] (4 ppm), 5%; in the assay on Phytophthora infestans [1] (16 ppm) it was 13%; in the assay on Plasmopara viticola (0.063 ppm) it was 0%.

For the molecule `COC[C@H](C)N(C(=O)CCl)c1c(C)csc1C` [Dimethenamid-P (I.Ea)], the “Observed effect (%)” value in the assay on Plasmopara viticola (0.016 ppm) is listed as 0%.

As for `COCC(C)N(C(=O)CCl)c1c(C)csc1C` (stereo not drawn) [Dimetheneamid-P (I.Ea), dimethenamid-P, reference compound], the “Observed effect (%)” value in the assay on Botrytis cinerea (0.25 ppm) worked out at 0%; in the assay on Phytophthora infestans [2] (setting [5]) it was 22%.

On to `CP(=O)(O)CCC(N)C(=O)O` (stereo not drawn) [Glufosinate (I.Ab)], for which the “Observed effect (%)” value in the assay on Phytophthora infestans [1] (1 ppm) was 3%; in the assay on Phytophthora infestans [1] (4 ppm), 12%; in the assay with Phytophthora infestans [1] (16 ppm), 20%; in the assay with Plasmopara viticola (0.063 ppm), 0%; with Plasmopara viticola (0.25 ppm), 0%.

As for `O=C(O)CNCP(=O)(O)O` [Glyphosate (I.Aa), glyphosate, reference compound], the “Observed effect (%)” value in the assay with Puccinia recondita [3] (0.063 ppm, curative (sprayed 1 day after inoculation)) came out at 0%; in the assay with Phytophthora infestans [1] (1 ppm), 4%; in the assay with Phytophthora infestans [1] (4 ppm) it was 1%; with Phytophthora infestans [1] (16 ppm), 13%; in the assay on Puccinia recondita [4] (0.063 ppm) it was 0%; in the assay on Plasmopara viticola (0.016 ppm) it was 0%.

Consider `Cc1nc2ncnn2c(N)c1-c1ccc(Cl)c(Cl)c1` [II-1, 6-(3,4-dichlorophenyl)-5-methyl-[1,2,4]triazolo[1,5-a]pyrimidin-7-ylamine], for which, in the assay on Septoria tritici (16 ppm), the “Observed effect (%)” value was 12%.

For the molecule `CCCCCCCCc1nc2ncnn2c(N)c1CC` [II-6, 6-ethyl-5-octyl-[1,2,4]triazolo[1,5-a]pyrimidin-7-ylamine], the “Observed effect (%)” value was 0% in the assay on Botrytis cinerea (16 ppm); 0% in the assay on Puccinia recondita [3] (4 ppm, curative); 25% with Phytophthora infestans [1] (16 ppm); 0% in the assay on Puccinia recondita [4] (4 ppm); 44% in the assay with Plasmopara viticola (16 ppm).

In the case of `CCCCCCCCc1c(CC)nc2ncnn2c1N` [II-7, 5-ethyl-6-octyl-[1,2,4]triazolo[1,5-a]pyrimidin-7-ylamine], the “Observed effect (%)” value in the assay with Phytophthora infestans [1] (1 ppm) was 7%; in the assay with Plasmopara viticola (1 ppm), 0%; with Plasmopara viticola (4 ppm), 22%.

With `CCc1nc2ncnn2c(N)c1CCC(C)CC(C)(C)C` (stereo not drawn) [II-8, 5-ethyl-6-(3,5,5-trimethylhexyl)-[1,2,4]triazolo[1,5-a]pyrimidin-7-ylamine], the figures for the “Observed effect (%)” value in the assay on Phytophthora infestans [1] (4 ppm), with Phytophthora infestans [2] (4 ppm) and with Plasmopara viticola (1 ppm) were 1%, 22% and 33%, respectively.

Consider `CCCCCCCCc1c(COC)nc2ncnn2c1N` [II-10, 5-methoxymethyl-6-octyl-[1,2,4]triazolo[1,5-a]pyrimidin-7-ylamine], for which the “Observed effect (%)” value in the assay with Botrytis cinerea (16 ppm) was determined as 0%; in the assay with Pyrenophora teres (16 ppm), 0%; in the assay on Phakopsora pachyrhizi (16 ppm, curative), 0%; with Phytophthora infestans [1] (0.25 ppm), 10%; in the assay with Phytophthora infestans [2] (16 ppm), 0%; with Plasmopara viticola (4 ppm), 0%. Also, the “Observed effect (%)” value in the assay with Plasmopara viticola (16 ppm) stood at 44%.

Turning to `Cc1cnc(C2=NC(=O)C(C)(C(C)C)N2)c(C(=O)O)c1` (stereo not drawn) [Imazapic (I.Cd)], the “Observed effect (%)” value worked out at 4% in the assay with Phytophthora infestans [1] (1 ppm); 4% in the assay with Phytophthora infestans [1] (4 ppm); 12% with Phytophthora infestans [1] (16 ppm); 0% in the assay on Plasmopara viticola (0.063 ppm); 0% in the assay with Plasmopara viticola (0.25 ppm).

Regarding `CC(C)C1(C)N=C(c2ncccc2C(=O)O)NC1=O` (stereo not drawn) [Imazapyr (I.Ca)], the “Observed effect (%)” value with Phytophthora infestans [1] (1 ppm) is recorded as 1%; in the assay with Phytophthora infestans [1] (4 ppm), 9%; with Phytophthora infestans [1] (16 ppm), 8%; in the assay on Plasmopara viticola (0.063 ppm), 0%.

For the molecule `CC(C)C1(C)N=C(c2nc3ccccc3cc2C(=O)O)NC1=O` (stereo not drawn) [Imazaquin (I.Cc)], the “Observed effect (%)” value in the assay with Phytophthora infestans [1] (1 ppm) is 8%; in the assay on Phytophthora infestans [1] (4 ppm), 11%; in the assay on Phytophthora infestans [1] (16 ppm), 23%; in the assay on Plasmopara viticola (0.25 ppm), 0%.

Regarding `CCc1cnc(C2=NC(C)(C(C)C)C(=O)N2)c(C(=O)O)c1` (stereo not drawn) [Imazethapyr (I.Cb)], the “Observed effect (%)” value amounted to 3% in the assay with Phytophthora infestans [1] (1 ppm), 8% in the assay on Phytophthora infestans [1] (4 ppm), 9% in the assay with Phytophthora infestans [1] (16 ppm) and 0% with Plasmopara viticola (0.25 ppm).

As to `C[n+]1ccc(-c2cc[n+](C)cc2)cc1` [Paraquat (I.Fa), paraquat, reference compound], the “Observed effect (%)” value in the assay with Botrytis cinerea (0.25 ppm) stood at 0%; in the assay with Phakopsora pachyrhizi (0.25 ppm, curative (sprayed 1 day after inoculation)), 0%; with Phytophthora infestans [1] (1 ppm), 4%; with Phytophthora infestans [1] (4 ppm) it was 5%; in the assay with Phytophthora infestans [1] (16 ppm), 7%; with Phytophthora infestans [2] (setting [5]) it was 0%. In addition, the “Observed effect (%)” value with Phytophthora infestans [2] (0.25 ppm) turned out to be 0%.

As to `CCC(CC)Nc1c([N+](=O)[O-])cc(C)c(C)c1[N+](=O)[O-]` [Pendimethalin (I.Da)], the “Observed effect (%)” value in the assay on Phytophthora infestans [1] (1 ppm) is listed as 7%; with Phytophthora infestans [1] (4 ppm), 16%; in the assay with Phytophthora infestans [1] (16 ppm), 29%; with Phytophthora infestans [1] (63 ppm), 38%; in the assay on Plasmopara viticola (0.25 ppm) it was 0%.

Regarding `CCC/C(=N\OCC)C1=C(O)CC(CC(C)SCC)CC1=O` (stereo not drawn) [Sethoxydim (I.Bc), sethoxydim, reference compound], the “Observed effect (%)” value with Pyrenophora teres (0.25 ppm) was found to be 0%; in the assay on Phytophthora infestans [1] (1 ppm), 2%; in the assay on Phytophthora infestans [1] (4 ppm), 5%; in the assay with Phytophthora infestans [1] (16 ppm), 14%; with Plasmopara viticola (0.25 ppm), 0%.
